What all share (format): biochemical
The target of one assay is T1, TAF1L(h) (Homo sapiens, UniProt Q8IZX4).
T1 construct: purchased Eurofins (KinaseProfiler)
The experiment in a line: radiometric kinase assay (KinaseProfiler, Eurofins), TAF1L. The conditions noted are these: in vitro radiometric kinase assay, tested at 1 nM to 10 000 nM, no pre-incubation; read-out: inhibitory activities (IC50 values) TAF1L. How it is done: (§1) The compounds were profiled in the radiometric assays (KinaseProfiler, Eurofins).
(§2) Briefly, kinases were diluted in the buffer shown below prior to addition to the reaction mix: • CDKL3, TAF1L: 20 mM Tris/HCl pH 8.5, 0.2 mM EDTA, 0.1% β-mercaptoethanol, 0.01% Brij-35, 5% glycerol, 1 mg/ml BSA; • Haspin: 15 mM MOPS, 0.75 mM EDTA, 0.0075% Brij-35, 3.75% Glycerol, 150 mM NaCl, 0.1% β-mercaptoethanol, 1 mg/mLBSA; • CDKL4, CLK2, PIM1, TRB2: […], 1 mM EDTA, 0.01% Brij-35, 5% Glycerol, 0.1% β-mercaptoethanol, 1 mg/mL BSA.
(§3) All compounds were prepared to 50x final assay concentration in 100% DMSO. This working stock of the compound was added to the assay well as the first component in the reaction, followed by the remaining components as detailed in the general assay protocols below. There was no pre-incubation step between the compound and the kinase prior to initiation of the reaction.
TAF1L(h) was incubated with 20 mM Tris/HCl pH 8.5, 0.2 mM EDTA, 250 µM RRRFRPASPLRGPPK (SEQ ID NO. 1), 10 mM magnesium acetate and γ-^33P-ATP (specific activity and concentration as required). The reaction was initiated by the addition of the Mg/ATP mix. After incubation for 120 minutes at room temperature, the reaction was stopped by the addition of phosphoric acid to a concentration of 0.5%. An aliquot of the stopped reaction was spotted onto a filter and washed four times for 4 minutes in 0.425% phosphoric acid and once in methanol prior to drying and scintillation counting.
(§4) Kinase activity data were expressed as the percent remaining kinase activity in tested samples compared to the vehicle (DMSO) reactions. The compounds were tested at the following concentrations: 1 nM, 3 nM, 10 nM, 30 nM, 100 nM, 300 nM, 1000 nM, 3000 nM, and 10 000 nM; IC50 values and curve fits were then obtained.

Another assay deals with T2, CLK2 (h) (Homo sapiens, UniProt P49760).
T2 construct: purchased Eurofins (KinaseProfiler)
In words: radiometric kinase assay (KinaseProfiler, Eurofins), CLK2. The settings on record: in vitro radiometric kinase assay, tested at 1 nM to 10 000 nM, no pre-incubation; read-out: inhibitory activities (IC50 values) CLK2. How it is done: as §1, §2, §3
CLK2 (h) was incubated with 8 mM MOPS pH 7.0, 0.2 mM EDTA, 20 µM […](p)EDEEE (SEQ ID NO. 2), 10 mM magnesium acetate and γ-^33P-ATP (specific activity and concentration as required). The reaction was initiated by the addition of the Mg/ATP mix. After incubation for 40 minutes at room temperature, the reaction was stopped by the addition of phosphoric acid to a concentration of 0.5%. An aliquot of the reaction was then spotted onto a filter and washed four times for 4 minutes in 0.425% phosphoric acid and once in methanol prior to drying and scintillation counting.
as §4

Another assay has as its target T3, PIM1 (h) (Homo sapiens, UniProt P11309).
T3 construct: purchased Eurofins (KinaseProfiler)
In words: radiometric kinase assay (KinaseProfiler, Eurofins), PIM1. The conditions noted are these: in vitro radiometric kinase assay, tested at 1 nM to 10 000 nM, no pre-incubation; read-out: inhibitory activities (IC50 values) PIM1. How it is done:
as §1, §2, §3
PIM1 (h) was incubated with 8 mM MOPS pH 7.0, 0.2 mM EDTA, 100 µM KKRNRTLTV (SEQ ID NO. 4), 10 mM magnesium acetate and γ-^33P-ATP (specific activity and concentration as required). The reaction was initiated by the addition of the Mg/ATP mix. After incubation for 40 minutes at room temperature, the reaction was stopped by the addition of phosphoric acid to a concentration of 0.5%. An aliquot of the reaction was then spotted onto a filter and washed four times for 4 minutes in 0.425% phosphoric acid and once in methanol prior to drying and scintillation counting.
as §4

Another assay has as its target T4, TRB2(h) (Homo sapiens, UniProt Q92519).
T4 construct: purchased Eurofins (KinaseProfiler)
T4 sequence (Q92519 1-343): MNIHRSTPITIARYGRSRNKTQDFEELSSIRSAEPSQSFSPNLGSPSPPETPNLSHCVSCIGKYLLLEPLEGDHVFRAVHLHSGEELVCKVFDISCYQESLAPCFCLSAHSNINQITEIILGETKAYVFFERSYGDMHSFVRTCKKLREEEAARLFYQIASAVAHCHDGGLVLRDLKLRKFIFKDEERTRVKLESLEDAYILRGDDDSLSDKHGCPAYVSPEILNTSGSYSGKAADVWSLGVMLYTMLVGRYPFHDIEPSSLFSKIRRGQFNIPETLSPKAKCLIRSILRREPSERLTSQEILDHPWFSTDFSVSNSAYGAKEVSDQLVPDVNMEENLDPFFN
In words: radiometric kinase assay (KinaseProfiler, Eurofins), TRB2. The conditions noted are these: in vitro radiometric kinase assay, tested at 1 nM to 10 000 nM, no pre-incubation; read-out: inhibitory activities (IC50 values) TRB2. How it is done: as §1, §2, §3
TRB2(h) was incubated with 8 mM MOPS pH 7.0, 0.2 mM EDTA, 250 µM RRRFRPASPLRGPPK (SEQ ID NO. 1), 10 mM magnesium acetate and γ-^33P-ATP (specific activity and concentration as required). The reaction was initiated by the addition of the Mg/ATP mix. After incubation for 120 minutes at room temperature, the reaction was stopped by the addition of phosphoric acid to a concentration of 0.5%. An aliquot of the stopped reaction was spotted onto a filter and washed four times for 4 minutes in 0.425% phosphoric acid and once in methanol prior to drying and scintillation counting.
as §4

T3 sequence (P11309 whole entry): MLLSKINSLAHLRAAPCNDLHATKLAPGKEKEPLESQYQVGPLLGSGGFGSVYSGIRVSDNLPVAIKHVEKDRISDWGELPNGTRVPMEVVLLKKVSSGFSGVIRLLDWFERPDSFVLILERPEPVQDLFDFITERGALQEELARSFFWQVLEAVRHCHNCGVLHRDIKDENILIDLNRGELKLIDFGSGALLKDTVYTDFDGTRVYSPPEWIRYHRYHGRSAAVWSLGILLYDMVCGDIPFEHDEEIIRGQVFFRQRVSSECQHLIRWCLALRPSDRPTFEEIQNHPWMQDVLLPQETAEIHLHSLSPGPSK
T2 sequence (P49760 whole entry): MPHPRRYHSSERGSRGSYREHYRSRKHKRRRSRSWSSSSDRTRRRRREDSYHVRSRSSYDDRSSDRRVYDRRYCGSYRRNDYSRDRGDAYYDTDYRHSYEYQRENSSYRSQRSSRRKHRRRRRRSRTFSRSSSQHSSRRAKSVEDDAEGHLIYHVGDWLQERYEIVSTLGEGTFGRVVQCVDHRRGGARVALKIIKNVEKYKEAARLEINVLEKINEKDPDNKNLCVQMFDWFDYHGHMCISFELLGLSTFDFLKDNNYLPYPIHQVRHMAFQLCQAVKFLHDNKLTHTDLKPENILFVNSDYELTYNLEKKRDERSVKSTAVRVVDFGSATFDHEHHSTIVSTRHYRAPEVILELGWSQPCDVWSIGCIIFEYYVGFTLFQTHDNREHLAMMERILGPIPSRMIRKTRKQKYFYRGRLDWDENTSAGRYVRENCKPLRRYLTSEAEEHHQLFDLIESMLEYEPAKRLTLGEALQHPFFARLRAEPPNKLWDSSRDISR
T1 sequence (Q8IZX4 whole entry): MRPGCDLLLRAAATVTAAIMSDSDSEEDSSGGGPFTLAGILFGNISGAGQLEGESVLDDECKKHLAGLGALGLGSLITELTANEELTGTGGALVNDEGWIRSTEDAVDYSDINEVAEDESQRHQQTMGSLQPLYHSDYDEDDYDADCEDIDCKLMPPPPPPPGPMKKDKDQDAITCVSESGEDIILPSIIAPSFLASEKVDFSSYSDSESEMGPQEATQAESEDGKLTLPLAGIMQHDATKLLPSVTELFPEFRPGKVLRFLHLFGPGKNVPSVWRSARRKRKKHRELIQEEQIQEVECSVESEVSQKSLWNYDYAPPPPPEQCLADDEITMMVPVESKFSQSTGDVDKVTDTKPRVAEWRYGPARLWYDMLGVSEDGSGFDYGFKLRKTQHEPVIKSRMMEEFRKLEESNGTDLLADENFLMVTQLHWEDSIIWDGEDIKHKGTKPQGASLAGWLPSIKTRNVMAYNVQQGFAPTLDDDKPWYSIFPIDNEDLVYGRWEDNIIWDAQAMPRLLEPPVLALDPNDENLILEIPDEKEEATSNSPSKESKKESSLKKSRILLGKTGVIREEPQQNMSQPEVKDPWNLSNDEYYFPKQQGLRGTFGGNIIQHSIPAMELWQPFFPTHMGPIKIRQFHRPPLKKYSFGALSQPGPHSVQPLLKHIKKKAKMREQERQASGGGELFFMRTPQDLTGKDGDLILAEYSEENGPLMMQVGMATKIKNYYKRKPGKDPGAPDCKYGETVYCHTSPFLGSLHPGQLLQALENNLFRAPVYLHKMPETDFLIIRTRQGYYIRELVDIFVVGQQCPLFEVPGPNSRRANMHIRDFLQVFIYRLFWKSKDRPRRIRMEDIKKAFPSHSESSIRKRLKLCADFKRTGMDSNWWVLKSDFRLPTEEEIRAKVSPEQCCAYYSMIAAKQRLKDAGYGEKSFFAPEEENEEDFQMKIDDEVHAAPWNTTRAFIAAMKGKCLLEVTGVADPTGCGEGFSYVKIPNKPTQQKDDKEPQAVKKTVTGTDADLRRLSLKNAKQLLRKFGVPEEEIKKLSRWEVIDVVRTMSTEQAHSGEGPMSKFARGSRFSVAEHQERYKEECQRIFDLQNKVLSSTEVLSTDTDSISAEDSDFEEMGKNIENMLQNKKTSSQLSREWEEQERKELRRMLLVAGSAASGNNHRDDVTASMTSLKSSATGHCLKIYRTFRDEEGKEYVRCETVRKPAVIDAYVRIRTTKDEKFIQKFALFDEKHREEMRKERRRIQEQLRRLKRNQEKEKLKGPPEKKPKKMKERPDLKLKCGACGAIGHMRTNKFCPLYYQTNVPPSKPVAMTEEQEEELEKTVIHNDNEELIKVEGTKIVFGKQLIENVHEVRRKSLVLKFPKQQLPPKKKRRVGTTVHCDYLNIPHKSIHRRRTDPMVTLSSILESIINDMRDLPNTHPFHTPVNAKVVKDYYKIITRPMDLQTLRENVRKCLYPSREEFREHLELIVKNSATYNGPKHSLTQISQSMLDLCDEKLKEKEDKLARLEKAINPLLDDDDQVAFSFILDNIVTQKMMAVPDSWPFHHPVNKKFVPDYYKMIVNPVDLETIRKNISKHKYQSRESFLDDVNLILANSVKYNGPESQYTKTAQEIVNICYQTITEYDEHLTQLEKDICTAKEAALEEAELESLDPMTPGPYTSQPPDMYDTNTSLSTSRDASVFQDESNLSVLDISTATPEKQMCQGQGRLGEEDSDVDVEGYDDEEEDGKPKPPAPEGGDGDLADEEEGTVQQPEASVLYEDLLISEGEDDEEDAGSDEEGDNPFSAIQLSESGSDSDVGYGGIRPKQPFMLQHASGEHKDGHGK

One may read the IC50 as the concentration that gives 50% inhibition. For the molecule `Cc1nsc(-c2csc3ccc(-c4cnn(C)c4)nc23)n1` [Preparative Example 71, 3-(3-methyl-1,2,4-thiadiazol-5-yl)-5-(1-methyl-1H-pyrazol-4-yl)thieno[3,2-b]pyridine], the half-maximal inhibitory concentration (IC50) was in the range of 100 to 499 nM at TAF1L(h), 500 to 3000 nM at CLK2 (h), 100 to 499 nM at PIM1 (h) and 100 to 499 nM on TRB2(h).
As for `Cn1cc(-c2ccc3scc(C(=O)c4ccccc4)c3n2)cn1` [Preparative Example 73, (5-(1-methyl-1H-pyrazol-4-yl)thieno[3,2-b]pyridin-3-yl)(phenyl)-methanone], the IC50 at TAF1L(h), at CLK2 (h), on PIM1 (h) and at TRB2(h) was 3000 to 10000 nM in each case.
Take `Cn1cc(-c2ccc3scc(C(O)c4ccccc4)c3n2)cn1` (centres unmarked) [Preparative Example 74]: the IC50 at TAF1L(h) is 100 to 499 nM; on CLK2 (h), 500 to 3000 nM; on PIM1 (h) it was 500 to 3000 nM; on TRB2(h), 500 to 3000 nM.
On to `Cn1cc(-c2ccc3scc(Nc4ccccc4)c3n2)cn1` [Preparative Example 76, 5-(1-methyl-1H-pyrazol-4-yl)-N-phenylthieno[3,2-b]pyridin-3-amine], for which the IC50 at TAF1L(h) lay in the range of 20 to 99 nM; on CLK2 (h), 500 to 3000 nM; on PIM1 (h), 100 to 499 nM; at TRB2(h), 100 to 499 nM.
Consider `CCn1cc(-c2ccc3scc(-c4ccncc4)c3n2)cn1` [Preparative Example 77, 5-(1-ethyl-1H-pyrazol-4-yl)-3-(pyridin-4-yl)thieno[3,2-b]pyridine], for which the concentration for half-maximal inhibition (IC50) lay in the range of 500 to 3000 nM at TAF1L(h), 3000 to 10000 nM at CLK2 (h), 500 to 3000 nM at PIM1 (h) and 500 to 3000 nM at TRB2(h).
Take `FC(F)(F)n1cc(-c2ccc3scc(-c4ccncc4)c3n2)cn1` [Preparative Example 78, 3-(pyridin-4-yl)-5-(1-(trifluoromethyl)-1H-pyrazol-4-yl)thieno[3,2-b]pyridine]: the half-maximal inhibitory concentration (IC50) on TAF1L(h), on CLK2 (h), on PIM1 (h) and on TRB2(h) was 3000 to 10000 nM each time.
For the molecule `CC(C)n1cc(-c2ccc3scc(-c4ccncc4)c3n2)cn1` [Preparative Example 79, 5-(1-isopropyl-1H-pyrazol-4-yl)-3-(pyridin-4-yl)thieno[3,2-b]pyridine], the concentration for half-maximal inhibition (IC50) on TAF1L(h) fell in the range of 3000 to 10000 nM; on CLK2 (h) it was 3000 to 10000 nM; on PIM1 (h), 3000 to 10000 nM; on TRB2(h) it was 500 to 3000 nM.
As for `c1ccc(Cn2cc(-c3ccc4scc(-c5ccncc5)c4n3)cn2)cc1` [Preparative Example 81, 5-(1-benzyl-1H-pyrazol-4-yl)-3-(pyridin-4-yl)thieno[3,2-b]pyridine], the half-maximal inhibitory concentration (IC50) lay within 500 to 3000 nM on TAF1L(h), 3000 to 10000 nM at CLK2 (h), 100 to 499 nM at PIM1 (h) and 3000 to 10000 nM at TRB2(h).
In the case of `Cn1ncc(-c2ccc3scc(-c4ccncc4)c3n2)c1CC1CC1` [Preparative Example 82, 5-(5-(cyclopropylmethyl)-1-methyl-1H-pyrazol-4-yl)-3-(pyridin-4-yl)thieno[3,2-b]pyridine], the IC50 on TAF1L(h) lay in the range of 500 to 3000 nM; on CLK2 (h) it was 500 to 3000 nM; on PIM1 (h) it was 20 to 99 nM; at TRB2(h) it was 100 to 499 nM.
For `Cn1cc(-c2ccc3scc(-c4ccncc4)c3n2)c(NC(=O)OC(C)(C)C)n1` [Preparative Example 83, tert-butyl(1-methyl-4-(3-(pyridin-4-yl)thieno[3,2-b]pyridin-5-yl)-1H-pyrazol-3-yl)carbamate], the IC50 on TAF1L(h) fell in the range of 500 to 3000 nM; on CLK2 (h), 3000 to 10000 nM; at PIM1 (h), 3000 to 10000 nM; on TRB2(h) it was 500 to 3000 nM.
As to `Cn1cc(-c2ccc3scc(-c4ccncc4)c3n2)c(N)n1` [Preparative Example 84, 1-methyl-4-(3-(pyridin-4-yl)thieno[3,2-b]pyridin-5-yl)-1H-pyrazol-3-amine], the concentration for half-maximal inhibition (IC50) fell in the range of 500 to 3000 nM at TAF1L(h), 3000 to 10000 nM at CLK2 (h), 3000 to 10000 nM at PIM1 (h) and 500 to 3000 nM at TRB2(h).

The record behind these values is patent publication EP4483954A1 (Masarykova Univerzita, priority 2023, dated 2025).
